Where “and” joins values, the source holds several entries; their conditions need not be identical. Identical values can stand only once.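 Each compound was tested at five concentrations against cells in 96-well plates for 48 hours. GI50 is the concentration that inhibits growth by half. The concentration for full growth arrest is given as TGI.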 *1 amine or outer side, *2 acyl side, *3 side chain or, on linkers, in order; H or OH if unused. Where a SMILES comes first, the peptide text is derived from it. Bridges are numbered along the chain shown (N, C = ends). [ ]: non-standard residue; d: D form. ξ: configuration not given here. X4 = CCC(C)C(N[*:1])C(O)CC(=O)O[C@H](C(=O)C(C)C(=O)[*:2])C(C)C; NMeY = CN[C@@H](Cc1ccc(O)cc1)C(=O)O; ξNMeL = CNC(CC(C)C)C(=O)O; ξT = CC(O)C(N)C(=O)O
Key:
Test in all cases: NCI anticancer screen, dose series, 48 h
T-47D breast = test system: T-47D breast
SF-295 CNS = test system: SF-295 CNS
U251 CNS = test system: U251 CNS
HCT-116 colon = test system: HCT-116 colon
UACC-62 melanoma = test system: UACC-62 melanoma
HCT-15 colon = test system: HCT-15 colon
MCF7 breast = test system: MCF7 breast
HOP-62 NSCLC = test system: HOP-62 NSCLC
LOX IMVI melanoma = test system: LOX IMVI melanoma
CAKI-1 renal = test system: CAKI-1 renal
NCI-H226 lung = test system: NCI-H226 lung

Structure (SMILES)	TGI (T-47D breast) [µM]	TGI (SF-295 CNS) [µM]	TGI (U251 CNS) [µM]	TGI (HCT-116 colon) [µM]	TGI (UACC-62 melanoma) [µM]	TGI (HCT-15 colon)	TGI (MCF7 breast) [µM]	TGI (HOP-62 NSCLC) [µM]	TGI (LOX IMVI melanoma)	TGI (CAKI-1 renal)	TGI (NCI-H226 lung) [µM]	GI50 (SF-295 CNS) [µM]	GI50 (UACC-62 melanoma) [µM]	GI50 (LOX IMVI melanoma) [µM]	GI50 (CAKI-1 renal) [µM]
O=C(NNC(=S)Nc1ccccc1)c1csc(NC(=S)NC2CCCCC2)n1	> 100	> 100	> 100	> 100	> 100	> 100 µM	> 100	> 100	69.5 µM	> 100 µM					
COc1ccc(-c2c(C#N)c(-c3ccccc3)n(NS(=O)(=O)c3ccccc3)c(=O)c2C#N)cc1		> 100	> 100	> 100	> 100	> 100 µM	> 100	> 100	> 100 µM	> 100 µM	> 100				
C/C=C/[C@H]1O[C@@](OC)([C@@H](C)[C@H](O)[C@H](C)[C@H]2OC(=O)/C(OC)=C/C(C)=C/[C@@H](C)[C@@H](O)[C@@H](C)[C@@H](O)[C@H](C)C/C(C)=C/C=C/[C@@H]2OC)CC(OC2CC(O)C(OC(N)=O)C(C)O2)[C@@H]1C (stereo not given in full)	15.1	< 0.01	9.71	0.197		5.26 µM	16	1.4	< 0.01 µM	11.7 µM	14.1				
COC(=O)c1cncc2c1CC1C3(C(=O)OC)C=NC(C4C(CO)=CCC43)C21C (stereo not given)	> 100	> 100	> 100	> 100		> 100 µM	> 100	> 100	> 100 µM	> 100 µM	> 100				
O=C(c1ccco1)N(C(=S)OCc1ccccn1)c1ccccc1	> 100		> 100	> 100	> 100	> 100 µM	> 100	> 100	> 100 µM	> 100 µM	> 100				
OC1OC(c2ccco2)C(F)(F)C(F)(F)C1(F)F (stereo not given)	> 100	> 100	> 100	> 100	> 100	> 100 µM	> 100	> 100	> 100 µM		> 100				
CCC(C)C1NC(=O)C(NC(=O)C(CC(C)C)N(C)C(=O)[C@@H]2CCCN2)C(C)OC(=O)[C@H](Cc2ccc(OC)cc2)N(C)C(=O)[C@@H]2CCCN2C(=O)[C@H](CC(C)C)NC(=O)C(C)C(=O)[C@H](C(C)C)OC(=O)CC1O (stereo not given in full) (H-P[ξNMeL][ξT][X4]LP[NMeY](Me); ester 3-C)		0.0149	0.0114		0.00147	0.224 µM and 0.146 µM		0.00782	0.00206 µM and 0.0101 µM	0.364 µM and 0.13 µM					
O=C1NC(N/N=C\c2ccccc2)=N/C1=C/c1ccc(Cl)cc1	> 100	78.8	76.9	71.4		62.7 µM	57.4	42	67.9 µM	> 100 µM	43.3				
NC(CCCCNC(=O)OCc1ccccc1)C(=O)NC(CCCCNC(=O)OCc1ccccc1)C(=O)ON1C(=O)CCC1=O (stereo not given)	> 100		> 100	> 100	> 100	> 100 µM	> 100	> 100			> 100				
COc1ccc(OC)c2cc(Cc3ccc(N(C)C)cc3)c(=O)c(Cc3ccc(N(C)C)cc3)cc12	> 100	> 100	> 100	> 100	> 100	> 100 µM	> 100	> 100		> 100 µM	> 100				
COC(=O)C(COC(=O)/C=C/c1ccc(OC(C)=O)c(OC(C)=O)c1)OC(=O)/C=C/c1ccc(OC(C)=O)c(OC(C)=O)c1 (stereo not given)		33.2	20.4	16.3	30.9	> 100 µM	21.8	58.2	23.4 µM	43.1 µM	90.5				
NC(=O)CC(Nc1ncc2c(n1)-c1ccccc1OC2)C(=O)O (stereo not given)		> 100	> 100	> 100	> 100	> 100 µM	> 100	> 100	> 100 µM	> 100 µM	> 100				
O=[As](O)(O)c1cc(N=Nc2ccc(-c3ccc(N=Nc4cc([As](=O)(O)O)c(O)cc4O)cc3)cc2)c(O)cc1O		> 100	> 100	> 100	> 100	> 100 µM		> 100	> 100 µM	> 100 µM	> 100				
CC1=CC[C@@H]2CC[C@]3(C)[C@H](CC[C@@H]4[C@@]5(C)CCCNC(C)(C)[C@@H]5CC[C@]43C)[C@H]2[C@@H]1C		3.42			3.22				3.01 µM	3.05 µM		1.87	1.77	1.66	1.69
CSc1nncc(-c2cc3c(c(SC)n2)CCC3)n1		> 100	> 100	> 100	> 100	> 100 µM		> 100		> 100 µM	> 100				
O=C(NCCNCCO)N/N=C/c1ccc(Cl)cc1	> 100	> 100	> 100	> 100	> 100	> 100 µM	> 100	> 100		> 100 µM	> 100				
CCOC(=O)C(Cc1ccccc1)(Cc1ccc(O)cn1)NC(=O)c1ccccc1 (stereo not given)		> 100	57.7	68.4	46	> 100 µM	51.5	> 100	45.2 µM	87 µM	> 100				
CC[N+](CC)=c1ccc2nc3c(cc(N)c4ccccc43)oc-2c1		0.288										0.111			
N#Cc1c2c(c(N3CCOCC3)n3c1nc1ccccc13)CCCC2	41.5	34.8	28.3	31.7	55.5	36.2 µM	87.1		41.1 µM	37.9 µM	32.5				
CCOC(=O)C(C(=O)Cc1ccccc1)c1ccccc1 (stereo not given)		> 100	> 100	> 100	> 100	> 100 µM		> 100	> 100 µM	> 100 µM	> 100				
COc1cc(C2C3=C(COC3=O)OC(C)(C)Oc3cc4c(cc32)OCO4)cc(OC)c1OC (stereo not given)		0.532	> 100	6.65	> 20		> 100	> 100	> 100 µM	> 100 µM	> 100				
